Numbered stars: 1 amine (or outer) side, 2 acyl side, 3 side chain; on linkers, the order of the positions; unused ones are H or OH. Square brackets hold non-standard residues; d marks the D form. Suc = O=C(CCC(=O)[*:2])[*:1]; NMeV = CN[C@H](C(=O)O)C(C)C; βAla = NCCC(=O)O

This is an account of results in patent US20220167645A1, “METHODS OF IMPROVING FISH FEED CONVERSION RATE AND SURVIVAL” (AQUINOVO LTD., priority 2019, published 2022).

Common to all, as to type: in vivo
The subject of assay [1] is TK receptors (tac1, tac2, tac3). In words: TK receptor mRNA expression following AN6 treatment. The note with it: different parts of the gut and skin.
Assay [2] relates to Tilapia fish. As to the kind of experiment: Feed conversion rate (FCR) calculated over experiments #1, #2, #3. Here is the method:
(§1) In order to determine the efficiency of feed conversion into fish substance in experiments (#1, #2, #3), FCR values which reflect the amount of feed needed to grow a kilogram fish, were calculated for each period and for the entire fish growth period. In order to determine the amount of consumed feed, the amount of feed provided was measured daily for each tank and the leftovers were collected, weighted and subtracted from the total amount of feed. Dead fish were removed every day before each feeding and then counted and weighed for accurate calculation of feed intake and FCR. It is to be noted that high mortality can still influence FCR values since feed eaten by fish that have later died cannot be subtracted from the total feed consumed and on the other hand periodic total fish weight gained is underestimated (dead fish are not included). Three FCR values were calculated according to the following formulas:
Specifically, improved FCR is observed 30 to 90 days after treatment initiation and can last at least 100 days after treatment stopped.

The test system of assay [3] is Tilapia fish. In words: Experiment #2: tilapia fed AN6-coated feed 60-150 dph (growth, biomass, FCR, intestine weight). How it is done:
MeM (powder, manufactured by Bern Aqua), Nanolis P1, P2 (pellet sizes of 0.8-1 mm, 1-1.5 mm, respectively, manufactured by Ocialis) and Tilaphi 1, 2 & 3 (pellet sizes of 1-1.5 mm, 2 mm, 3-5.5 mm, respectively, manufactured by Ocialis) were used as basic regular feed. The basic feed was coated according to the following general procedure: 9 ml or 3 ml of Tris-HCl solution (50 mM, pH=8.8) were diluted to 60 ml with distilled H2O. For AN6-containing feed preparation, desired amounts of AN6 peptide (a TK antagonist having the sequence Succ-Asp-Ser-D-Trp—N(Me)Val-βAla-Leu-Met-NH2, SEQ ID NO. 6) were dissolved in the Tris-HCl solution. Then, each of the various solutions was mixed with 3 Kg of basic feed pellets using an electric mixer. The peptide-feed mixtures where then dried either in oven at 40° C. for 24 hours or in drying drum for few hours to form coated pellets. The total amount of each feed was 3 Kg.
Tilapia fish (n=1440) have been raised from day 60 to day 119 post-hatch in indoor tanks and then transferred to outdoor tanks (120-150 dph) followed by cages in ponds (150-243 dph). The fish were fed to apparent satiation 2-4 times a day, for 90 days (60-150 dph) either with regular feed (Feed A, Group C, n=60 in 8 repeats); feed coated with AN6 peptide solution in ratio of 5 mg AN6/Kg feed (5 ppm, Feed B, Group D, n=60 in 8 repeats); or feed coated with AN6 peptide solution in ratio of 10 mg AN6/Kg feed (Feed C, Group E, n=60 in 8 repeats).
During the experimental period, the average fish weight was measured, and the daily growth rate was calculated by dividing the average weight gained in each measuring period by the number of days since the last measurement. […] However, from age 200 dph, a considerable jump in fish performance and FCR was observed, reaching a maximal level at the last measurement point (243 dph, +8.4% average weight, +18% weight gain, +10% total biomass; FIG. 1, experiment #2 and FIG. 3B). The effect on growth was evident even when considering differences in initial body weight (FIG. 2B).
as §1
At the end of the experiment described in example 3 (experiment #2), 6 fish from each cage/tank (3 females and 3 males, n=24 per treatment group) were sacrificed and whole intestine was removed and weighted.

In assay [4] the test system is Tilapia fish. The description is as above. Conditions: 5 mgAN6/Kg feed from 60 dph for 150 days.
In assay [5] the test system is Tilapia fish. As to the kind of experiment: Experiment #3: tilapia fed AN6-coated feed, treatment schedules 1 to 8 (survival, weight, length, size distribution, FCR). Conditions: 10 mg AN6/Kg feed from 10 dph for 90 days; D279; compared to control.
Where [6] appears, read: 10 mg/Kg feed, Group E, last measurement point 243 dph, vs control.

Turning to “Succ-Asp-Ser- D-Trp -N(Me)Val-βAla-Leu-Met-NH2 (Suc-DS[dW][NMeV][βAla]LM-NH2; SMILES CSCC[C@H](NC(=O)[C@H](CC(C)C)NC(=O)CCNC(=O)[C@H](C(C)C)N(C)C(=O)[C@@H](Cc1c[nH]c2ccccc12)NC(=O)[C@H](CO)NC(=O)[C@H](CC(=O)O)NC(=O)CCC(=O)O)C(N)=O) [AN6]”, in assay [1], the “expression of all TK receptors (tac1, tac2, tac3)” value is “altered”. The FCR-growth relationship result in the assay on Tilapia fish [2] (5, 10 mg and 30 mg AN6/Kg feed in other cases (experiments #2 and #3), with decrease in feed intake) is “improved FCR which did not coincide with improved growth”. The “FCR in adult fish” value in the assay with Tilapia fish [2] (all AN6 peptide treatments, FIGS. 5A, 5B, 10, 11, 12) is reported as “significantly improves FCR”. The “duration of improved FCR after treatment stopped” value in the assay on Tilapia fish [2] (in vivo) was “at least 100 days”. Besides, in the assay with Tilapia fish [3] (10 mg/Kg feed, Group E (fed 60-150 dph), age 95 to 165 dph, vs control), the “increase in fish average weight and growth rate” value is on record as “~+3%”. In the assay on Tilapia fish [3] (setting [6]), the average weight result is listed as “+8.4%”, the total biomass result is listed as “+10%” and the weight gain result is on record as “+18%”. Further, the “number of fish in the upper 6.5th decile” value in the assay on Tilapia fish [3] (10 mgAN6/Kg feed, Group E (control 2.8%)) worked out at 7.2%. For the same substance, the “number of fish in the lower 2th decile” value in the assay on Tilapia fish [3] (10 mgAN6/Kg feed, Group E (control 18.4%)) is on record as 13.2%. The “weight gain of male and female populations analysed separately” value in the assay on Tilapia fish [3] (FIG. 4, 5 and 10 mg/Kg for 90 days (60-150 dph)) is recorded as “better performance than control”. In the assay on Tilapia fish [3] (male fish treated with 10 mg AN6/Kg feed, end of experiment #2, vs control, FIG. 6), the “ratio between intestine weight and fish weight (ISI)” value is reported as “+21%”. In the assay with Tilapia fish [4], the FCR result is given as “improved FCR significantly” and the growth result is listed as “not sufficient to improved growth”. Also, the “increase in average fish weight” value in the assay on Tilapia fish [5] is recorded as “+3.89%”.
